The target in the test is T1, 5-hydroxytryptamine receptor 3A (Homo sapiens, UniProt P46098).
T1 sequence (P46098 whole entry): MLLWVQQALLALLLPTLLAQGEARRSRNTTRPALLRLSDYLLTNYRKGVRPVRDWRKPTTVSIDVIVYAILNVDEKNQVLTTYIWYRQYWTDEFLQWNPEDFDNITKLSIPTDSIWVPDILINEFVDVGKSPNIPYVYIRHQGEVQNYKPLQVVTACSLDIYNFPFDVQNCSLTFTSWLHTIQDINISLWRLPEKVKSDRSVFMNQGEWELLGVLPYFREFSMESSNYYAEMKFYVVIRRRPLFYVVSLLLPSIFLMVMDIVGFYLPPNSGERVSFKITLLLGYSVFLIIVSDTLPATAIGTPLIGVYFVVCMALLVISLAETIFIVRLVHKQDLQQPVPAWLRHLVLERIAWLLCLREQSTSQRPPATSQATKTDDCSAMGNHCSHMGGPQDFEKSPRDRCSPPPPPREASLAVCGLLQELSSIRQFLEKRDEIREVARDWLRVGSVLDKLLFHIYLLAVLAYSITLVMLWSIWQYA
The test is described as follows: Radioligand Binding Assay: The relative affinity of the various compounds for the human 5-HT3 receptor was measured in a radioligand binding assay, using a scintillation proximity assay (SPA) format. Test compounds were dissolved to 10 mM in 100% DMSO, then serially diluted at 10x assay concentrations in 100% DMSO in 96-well polypropylene plates and further diluted to 4x assay concentrations with the assay buffer. Samples were incubated in 50 mM Tris-HCl, pH 7.5, 3 mM MgCl2, 1 mM EDTA and 10% DMSO with 10 nM [9-methyl-3H]BRL-43694 (Perkin Elmer), 3 ug of human 5-HT3 receptor membranes (Perkin Elmer) and 0.5 mg/mL SPA beads (WGA PVT, Amersham Biosciences) in a final volume of 0.2 mL. Binding reactions were set up in wells of PicoPlates-96 (Perkin Elmer) by adding consecutively 50 uL of each competing compound or buffer, SPA beads, the radioligand and 5-HT3 receptor membranes. After an overnight incubation at room temperature on a Nutator mixer, plates were centrifuged for 15 min at 1,500 rpm.

Values joined by “and” are separate entries in the source; they are usually repeats but may differ in a detail not shown here. Equal entries are not always repeated.

On to `O=C1c2cccc3[nH]nc(c23)CN1CC1CN2CCC1CC2` (configuration not stated), for which the Ki is 217 nM and 24 nM. Consider `O=C1c2cccc3[nH]nc(c23)CCN1CC1CN2CCC1CC2` (configuration not stated), for which the Ki was 579 nM and 241 nM.

Values taken from ChEMBL document CHEMBL3638654, “5-HT3 receptor modulators, methods of making, and use thereof” (2015).
